Tests used:
[1] = tested on: barnyardgrass (Echinochloa crus-galli); test: Test A preemergence, barnyardgrass; assay type: in vivo; settings: 0 to 100 scale (0 no effect, 100 complete control)
Description: (§1) Seeds of plant species selected from barnyardgrass (Echinochloa crus-galli), kochia (Kochia scoparia), ragweed (common ragweed, Ambrosia elatior), ryegrass, Italian (Italian ryegrass, Lolium multiflorum), foxtail, giant (giant foxtail, Setaria faberii), foxtail, green (green foxtail, Setaria viridis) and pigweed (Amaranthus retroflexus) were planted into a blend of loam soil and sand and treated preemergence with a directed soil spray using test chemicals formulated in a non-phytotoxic solvent mixture which included a surfactant.
(§2) At the same time, plants selected from these weed species and also wheat (Triticum aestivum), corn (Zea mays), blackgrass (Alopecurus myosuroides), and galium (catchweed bedstraw, Galium aparine) were planted in pots containing the same blend of loam soil and sand and treated with postemergence applications of test chemicals formulated in the same manner. Plants ranged in height from 2 to 10 cm and were in the one- to two-leaf stage for the postemergence treatment. Treated plants and untreated controls were maintained in a greenhouse for approximately 10 days, after which time all treated plants were compared to untreated controls and visually evaluated for injury. […] A dash (-) response means no test result.

[2] = tested on: kochia (Kochia scoparia); test: Test A preemergence, kochia; assay type: in vivo; settings: 0 to 100 scale (0 no effect, 100 complete control)
Description: as §1, §2

[3] = tested on: ragweed (common ragweed, Ambrosia elatior); test: Test A preemergence, ragweed; assay type: in vivo; settings: 0 to 100 scale (0 no effect, 100 complete control)
Description: as §1, §2

[4] = tested on: ryegrass, Italian (Italian ryegrass, Lolium multiflorum); test: Test A preemergence, ryegrass, Italian; assay type: in vivo; settings: 0 to 100 scale (0 no effect, 100 complete control)
Description: as §1, §2

[5] = tested on: foxtail, green (green foxtail, Setaria viridis); test: Test A preemergence, foxtail, green; assay type: in vivo; settings: 0 to 100 scale (0 no effect, 100 complete control)
Description: as §1, §2

[6] = tested on: pigweed (Amaranthus retroflexus); test: Test A preemergence, pigweed; assay type: in vivo; settings: 0 to 100 scale (0 no effect, 100 complete control)
Description: as §1, §2

[7] = tested on: barnyardgrass (Echinochloa crus-galli); test: Test A postemergence, barnyardgrass; assay type: in vivo; settings: 0 to 100 scale (0 no effect, 100 complete control)
Description: as §1, §2

[8] = tested on: kochia (Kochia scoparia); test: Test A postemergence, kochia; assay type: in vivo; settings: 0 to 100 scale (0 no effect, 100 complete control)
Description: as §1, §2

[9] = tested on: ragweed (common ragweed, Ambrosia elatior); test: Test A postemergence, ragweed; assay type: in vivo; settings: 0 to 100 scale (0 no effect, 100 complete control)
Description: as §1, §2

[10] = tested on: ryegrass, Italian (Italian ryegrass, Lolium multiflorum); test: Test A postemergence, ryegrass, Italian; assay type: in vivo; settings: 0 to 100 scale (0 no effect, 100 complete control)
Description: as §1, §2

[11] = tested on: foxtail, green (green foxtail, Setaria viridis); test: Test A postemergence, foxtail, green; assay type: in vivo; settings: 0 to 100 scale (0 no effect, 100 complete control)
Description: as §1, §2

[12] = tested on: pigweed (Amaranthus retroflexus); test: Test A postemergence, pigweed; assay type: in vivo; settings: 0 to 100 scale (0 no effect, 100 complete control)
Description: as §1, §2

[13] = tested on: wheat (Triticum aestivum); test: Test A postemergence, wheat; assay type: in vivo; settings: 0 to 100 scale (0 no effect, 100 complete control)
Description: as §1, §2

[14] = tested on: corn (Zea mays); test: Test A postemergence, corn; assay type: in vivo; settings: 0 to 100 scale (0 no effect, 100 complete control)
Description: as §1, §2

[15] = tested on: blackgrass (Alopecurus myosuroides); test: Test A postemergence, blackgrass; assay type: in vivo; settings: 0 to 100 scale (0 no effect, 100 complete control)
Description: as §1, §2

[16] = tested on: galium (catchweed bedstraw, Galium aparine); test: Test A postemergence, galium; assay type: in vivo; settings: 0 to 100 scale (0 no effect, 100 complete control)
Description: as §1, §2

[17] = tested on: rice (Oryza sativa); test: Test B flooded paddy test, rice; settings: Flood, 250 g ai/ha, applied to paddy water, 2-leaf stage, visually evaluated after 13 to 15 days
[18] = tested on: ducksalad (Heteranthera limosa); test: Test B flooded paddy test, ducksalad; settings: Flood, 250 g ai/ha, applied to paddy water, 2-leaf stage, visually evaluated after 13 to 15 days
[19] = tested on: barnyardgrass (Echinochloa crus-galli); test: Test B flooded paddy test, barnyardgrass; settings: Flood, 250 g ai/ha, applied to paddy water, 2-leaf stage, visually evaluated after 13 to 15 days
[20] = tested on: foxtail, giant (giant foxtail, Setaria faberii); test: Test A preemergence, foxtail, giant; assay type: in vivo; settings: 0 to 100 scale (0 no effect, 100 complete control)
Description: as §1, §2

[21] = tested on: foxtail, giant (giant foxtail, Setaria faberii); test: Test A postemergence, foxtail, giant; assay type: in vivo; settings: 0 to 100 scale (0 no effect, 100 complete control)
Description: as §1, §2

Compound	Plant response rating, Barnyardgrass ([1]; 125 g ai/ha)	Plant response rating, Kochia ([2]; 125 g ai/ha)	Plant response rating, Ragweed ([3]; 125 g ai/ha)	Plant response rating, Ryegrass, Italian ([4]; 125 g ai/ha)	Plant response rating, Foxtail, Green ([5]; 125 g ai/ha)	Plant response rating, Pigweed ([6]; 125 g ai/ha)	Plant response rating, Barnyardgrass ([7]; 125 g ai/ha)	Plant response rating, Kochia ([8]; 125 g ai/ha)	Plant response rating, Ragweed ([9]; 125 g ai/ha)	Plant response rating, Ryegrass, Italian ([10]; 125 g ai/ha)	Plant response rating, Foxtail, Green ([11]; 125 g ai/ha)	Plant response rating, Pigweed ([12]; 125 g ai/ha)	Plant response rating, Wheat ([13]; 125 g ai/ha)	Plant response rating, Corn ([14]; 125 g ai/ha)	Plant response rating, Blackgrass ([15]; 125 g ai/ha)	Plant response rating, Galium ([16]; 125 g ai/ha)	Plant response rating, Rice (0 to 100 scale, 0 is no effect, 100 is complete control) [17]	Plant response rating, Ducksalad (0 to 100 scale, 0 is no effect, 100 is complete control) [18]	Plant response rating, Barnyardgrass (0 to 100 scale, 0 is no effect, 100 is complete control) [19]	Plant response rating, Barnyardgrass ([1]; 31 g ai/ha)	other results
5-Chloro-2-[[1-oxido-3-(4,4,4-trifluorobutyl)-3H-2,1-benzoxathiol-4-yl]oxy]pyrimidine [Compound 15]	30	20	0	0	50	70	30	80	30	20	20	70	10	20	30	80	0	0	0	–	Plant response rating, Barnyardgrass ([1]; 500 g ai/ha): 70; Plant response rating, Kochia ([2]; 500 g ai/ha): 80; Plant response rating, Ragweed ([3]; 500 g ai/ha): 20; Plant response rating, Ryegrass, Italian ([4]; 500 g ai/ha): 30; Plant response rating, Foxtail, Green ([5]; 500 g ai/ha): 100; Plant response rating, Pigweed ([6]; 500 g ai/ha): 100; Plant response rating, Barnyardgrass ([7]; 500 g ai/ha): 60; Plant response rating, Kochia ([8]; 500 g ai/ha): 90; Plant response rating, Ragweed ([9]; 500 g ai/ha): 60; Plant response rating, Ryegrass, Italian ([10]; 500 g ai/ha): 90; Plant response rating, Foxtail, Green ([11]; 500 g ai/ha): 80; Plant response rating, Pigweed ([12]; 500 g ai/ha): 90; Plant response rating, Wheat ([13]; 500 g ai/ha): 30; Plant response rating, Corn ([14]; 500 g ai/ha): 40; Plant response rating, Blackgrass ([15]; 500 g ai/ha): 90; Plant response rating, Galium ([16]; 500 g ai/ha): 80
O=C1CC(CCCC(F)(F)F)c2c(Oc3ncc(Cl)cn3)cccc21 (stereo not shown) [Compound 6, 4-[(5-Chloropyrimidin-2-pyrimidinyl)oxy]-2,3-dihydro-3-(4,4,4-trifluorobutyl)-1H-inden-1-one]	90	80	0	10	100	100	40	60	0	30	40	100	10	20	30	90	20	100	40	0	Plant response rating, Kochia ([2]; 31 g ai/ha): 0; Plant response rating, Ragweed ([3]; 31 g ai/ha): 0; Plant response rating, Ryegrass, Italian ([4]; 31 g ai/ha): 0; Plant response rating, Foxtail, Green ([5]; 31 g ai/ha): 20; Plant response rating, Pigweed ([6]; 31 g ai/ha): 0; Plant response rating, Barnyardgrass ([7]; 31 g ai/ha): 10; Plant response rating, Kochia ([8]; 31 g ai/ha): 10; Plant response rating, Ragweed ([9]; 31 g ai/ha): 0; Plant response rating, Ryegrass, Italian ([10]; 31 g ai/ha): 0; Plant response rating, Foxtail, Green ([11]; 31 g ai/ha): 10; Plant response rating, Pigweed ([12]; 31 g ai/ha): 90; Plant response rating, Wheat ([13]; 31 g ai/ha): 0; Plant response rating, Corn ([14]; 31 g ai/ha): 0; Plant response rating, Blackgrass ([15]; 31 g ai/ha): 10; Plant response rating, Galium ([16]; 31 g ai/ha): 60
O=C1OCC(CCCC(F)(F)F)c2c(Oc3ncc(Cl)cn3)cccc21 (stereo not shown) [Compound 16, 5-[(5-Chloro-2-pyrimidinyl)oxy]-3,4-dihydro-4-(4,4,4,-trifluorobutyl)-1H-2benzopyran-1-one]	100	100	–	70	–	100	80	100	50	80	–	100	50	40	90	100	15	100	75	60	Plant response rating, Kochia ([2]; 31 g ai/ha): 10; Plant response rating, Ryegrass, Italian ([4]; 31 g ai/ha): 10; Plant response rating, Foxtail, Giant ([20]; 31 g ai/ha): 80; Plant response rating, Foxtail, Giant ([20]; 125 g ai/ha): 100; Plant response rating, Pigweed ([6]; 31 g ai/ha): 100; Plant response rating, Barnyardgrass ([7]; 31 g ai/ha): 30; Plant response rating, Kochia ([8]; 31 g ai/ha): 80; Plant response rating, Ragweed ([9]; 31 g ai/ha): 10; Plant response rating, Ryegrass, Italian ([10]; 31 g ai/ha): 20; Plant response rating, Foxtail, Giant ([21]; 31 g ai/ha): 30; Plant response rating, Foxtail, Giant ([21]; 125 g ai/ha): 90; Plant response rating, Pigweed ([12]; 31 g ai/ha): 80; Plant response rating, Wheat ([13]; 31 g ai/ha): 50; Plant response rating, Corn ([14]; 31 g ai/ha): 0; Plant response rating, Blackgrass ([15]; 31 g ai/ha): 80; Plant response rating, Galium ([16]; 31 g ai/ha): 90

From patent publication US11427549B2, “Pyrimidinyloxy benzo-fused compounds as herbicides” (FMC Corporation, priority 2017, dated 2022)
